Key:
[1] = tested on: LX-2 hepatic stellate cells; experiment: TGFβ1-induced fibrogenic gene expression (Col1a1, Acta2, Timp2) in LX-2 hepatic stellate cells, qPCR; format: cell-based, human
Source text: Hepatic stellate cells in a healthy liver are in the space of Disse, between the hepatocytes and liver sinusoidal endothelial cells. In response to liver injury hepatic stellate cells become activated, proliferative and contractile, increase production of aSMA, secretion of type I and III collagens and specific MMP and TIMP proteins. LX-2 cells were selected as a model of activated hepatic stellate cells and used to test whether specific amino acid compositions would reduce fibrogenic gene expression induced with TGFβ1.
LX-2 hepatic stellate cells (Millipore) were seeded on day 0 at 1.67E4 cells per well in collagen I coated 96-well microplates (ThermoFisher) in Dulbecco's Modified Eagle Medium (DMEM, Corning) supplemented with 2% heat inactivated fetal bovine serum (HI-FBS, HyClone) and 0.2% Primocin (InVivoGen) and incubated overnight at 37° C., 5% CO2. […] Combinations containing N-acetylcysteine were dosed with 10 mM. Cells were pretreated for 6 hours at 37° C., 5% CO2. After pretreatment, TGFβ1 (R&D Systems) or vehicle was spiked into each well for a final concentration of 5 ng/mL and cells were incubated under this stimulus for a further 12 hours at 37° C., 5% CO2.
After 12 hour incubation, RNA extraction and quantitative PCR was conducted on lysates to determine collagen-1a1 expression normalized to β-actin housekeeping expression using the ΔΔCt method using TaqMan primer probes (Integrated DNA Technologies: Col1A1, Hs.PT.58.15517795; Actb, Hs.PT.39a.22214847; Acta2, Hs.PT.56a.24853961; Timp2, Hs.PT.58.14780594).

[2] = tested on: Col1a1 gene expression, primary human hepatic stellate cells; experiment: Col1a1 gene expression in TGFβ1-stimulated primary human hepatic stellate cells; format: cell-based; conditions: primary human hepatic stellate cells, three healthy donors, TGFβ1 3 ng/mL 24 h; summary in words
Experimental: (§1) Primary human hepatic stellate cells were obtained from Samsara Sciences. Cells were grown in Complete HSC Medium to ˜80% confluence in T75 or T150 flasks below passage 10 were seeded into sterile, collagen I coated, 96-well optical plastic microplates (ThermoScientific, 152036) and incubated overnight at 37° C., 5% CO2 in a humidified incubator in DMEM with 2% Fetal Bovine Serum and 1% Antibiotic-Antimycotic. After the overnight incubation, plates are washed and pretreated with medium±single amino acid dropout, 1×HMDB DMEM±supplemental amino acid dose for 10.5 hours. After 10.5 hour pretreatment, the same pretreatment medium supplemented with 3 ng/mL TGFβ1, was applied and incubated for 24 hours at 37° C., 5% CO2. After 24 hour stimulus, supernatant was removed, RNA was extracted and gene expression was evaluated using the ΔΔCq method within each single amino acid dropout and supplementation by normalizing to its own 1×HMDB concentration.

[3] = tested on: procollagen Iα1 secretion, primary human hepatic stellate cells; experiment: Procollagen Iα1 secretion by TGFβ1-stimulated primary human hepatic stellate cells, ELISA; format: cell-based; conditions: primary human hepatic stellate cells, three healthy donors, TGFβ1 3 ng/mL 24 h; summary in words
Experimental: as §1
Human Procollagen 1α1 was measured from the supernatant by ELISA (Human ProCollagen I alpha 1 DuoSet ELISA, R&D Systems) at 1/100 dilution in 1× Reagent Diluent (Reagent Ancillary Kit 2, R&D Systems).
Tables 32, 33, 33-1, 33-2, 33-3, and 33-4 show the fold change in procollagen Iα1 in primary human hepatic stellate cells from three different healthy donors normalized to their respective baseline amino acid conditions. Statistical significance calculated by one-way

[4] = tested on: Hsp47 gene expression, primary human hepatic stellate cells; experiment: Hsp47 gene expression in TGFβ1-stimulated primary human hepatic stellate cells; format: cell-based; conditions: primary human hepatic stellate cells, three healthy donors, TGFβ1 3 ng/mL 24 h; summary in words
Experimental: Primary human hepatic stellate cells were obtained from Samsara Sciences based on the following criteria for selecting donors: adult age (between 18 and 50 years), normal BMI (>18.5 and <25), and absence of confounding liver disease. Cells grown in Complete HSC Medium to ˜80% confluence in T75 or T150 flasks below passage 10 were seeded into sterile, collagen I coated, 96-well optical plastic microplates (ThermoScientific, 152036) at 6000 cells per well (1250 cells per cm2) and incubated overnight at 37° C., 5% CO2 in a humidified incubator in DMEM with 2% Fetal Bovine Serum and 1% Antibiotic-Antimycotic.
After the overnight incubation, plates were removed from the incubator and the medium was gently pipetted off and washed twice with 150 μL per well DPBS. The DPBS was removed and the pretreatment medium (±single amino acid dropout, 1×HMDB DMEM+1% Antibiotic-Antimycotic, 10 mM HEPES, ±supplemental amino acid dose; see experiment for medium composition) was applied to the cells at 150 μL per well. Plates were returned to the incubator for 10.5 hours.
After 10.5 hour pretreatment, the medium was removed from the cells, and the same pretreatment medium, now supplemented with 3 ng/mL TGFβ1, was applied. Each plate contained 3 ng/mL TGFβ1 in 1× human plasma amino acid (HMDB or PAA) concentration medium, 0 ng/mL in 1×HMDB, and 3 ng/mL TGFβ1+20 μM Silybin in 1×HMDB to serve as controls. Plates were then incubated for 24 hours at 37° C., 5% CO2.
After 24 hour stimulus, supernatant was removed and frozen at −80° C. in two separate aliquots. The cells were then washed with 125 μL per well Buffer FCW (FastLane Cell Multiplex NR Kit, Qiagen, 216713). The wash buffer was immediately removed and 50 μL of Cell Processing Mix (containing genomic DNA Wipeout buffer) was applied to lyse cells, incubating for 10 minutes at room temperature. RNA lysate was then transferred to 96-well qPCR plates, sealed, and gDNA was digested on thermal cycler at 75° C. for 5 minutes. RNA lysate was frozen at −80° C.
Each 20 μL one-step RT-qPCR reaction contained 4 μL of RNA lysate. Gene expression of Hsp47, and Gapdh were multiplexed using the HEX, and FAM fluorescent channels, respectively, with commercially available primer-probe mixes (the Human Hsp47 Primer-Probe Set, HEX; and the Human Gapdh Primer-Probe Set, FAM from IDT). Gene expression was evaluated using the ΔΔCq method within each single amino acid dropout and supplementation by normalizing to its own 1×HMDB concentration.

[5] = LX-2 cells with TGFβ1, individual amino acid at 1X HMDB derived concentration
[6] = LX-2 cells with TGFβ1, individual amino acid at 50X HMDB derived concentration
[7] = LX-2 cells, TGFβ1 5 ng/mL 12 h, combinations at 40× HMDB, N-acetylcysteine 10 mM, normalized to β-actin

Row | Compound | Col1a1 gene expression, mean [1, 5] | Col1a1 gene expression, mean [1, 6] | Col1a1 gene expression [2] | procollagen Iα1 secretion [3] | Hsp47 gene expression [4] | Col1a1 gene expression, mean ([1]; LX-2 cells with TGFβ1, individual amino acid at 50X HMDB derived concentration, listed as cysteine) | Acta2 gene expression, mean [1, 7] | Timp2 gene expression, mean [1, 7] | Col1a1 gene expression, mean ([1]; LX-2 cells, TGFβ1 5 ng/mL 12 h, combinations at 40× HMDB, N-acetylcysteine 10 mM, normalized to β-actin (ΔΔCt)) | Col1a1 gene expression, mean ([1]; LX-2 cells, TGFβ1 5 ng/mL 12 h, combinations at 40× HMDB, N-acetylcysteine 10 mM, normalized to β-actin (ΔΔCt), listed as N-acetylcysteine) | Timp2 gene expression, mean ([1]; LX-2 cells, TGFβ1 5 ng/mL 12 h, combinations at 40× HMDB, N-acetylcysteine 10 mM, normalized to β-actin, listed as N-acetylcysteine)
1 | N=C(N)NCCC[C@H](N)C(=O)O [ARG, arginine] | 1.620 | 1.970 | did not significantly change | significantly increased procollagen Iα1 secretion in two of three donors | significantly increased Hsp47 gene expression in two of three donors |  |  |  |  |  | 
2 | N[C@@H](CS)C(=O)O [CYS, cysteine] | 2.491 | 1.695 |  |  |  | significant decrease |  |  |  |  | 
3 | NC(=O)CC[C@H](N)C(=O)O [GLN, glutamine] | 2.340 | 2.194 |  |  | significantly increased Hsp47 gene expression in one of three donors |  |  |  |  |  | 
4 | CC(C)C[C@H](N)C(=O)O [LEU, leucine] | 1.901 | 2.372 |  |  | did not significantly change |  |  |  |  |  | 
5 | CC(=O)N[C@@H](CS)C(=O)O [NAC, N-acetylcysteine] |  |  | significantly reduced Col1a1 gene expression in all three donors | significantly decrease procollagen Iα1 secretion in two of the three donors |  |  | 0.647 | 1.076 | 1.659 | reduced | reduced
